# Tests used:
# IRAK4 = IRAK4 (Homo sapiens (Human), UniProt Q9NWZ3); assay: IRAK4 ADP-Glo Assay; format: biochemical; conditions: MBP substrate
# Outline: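 Human IRAK4 kinase reaction with MBP substrate plus ATP in Tris-HCl/MgCl2/BSA/DTT buffer, pH 7.4, run 60 min at room temperature or 30 min at 30 °C. ADP formed was measured by ADP-Glo luminescence after ATP depletion (40 min) and detection reagent (30 min).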
# IL23p19 in THP-1 Cells = assay: LPS Induced IL23p19 in THP-1 Cells (with IFNγ Primed) Assay; format: cell-based; conditions: Homo sapiens, THP-1, 18 h, read-out: IL23 (THP, LPS) (IC50, μM)
# Outline: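 THP-1 cells (50K/well) primed with IFNγ (50 ng/mL) about 18 h, then given compound and stimulated with LPS for 18 h at 37 °C. Secreted IL-23p19 measured by sandwich ELISA with chemiluminescent read-out, giving EC50. Cell Titer Glo used on the remaining cells for toxicity.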
# TNF-α in human PBMCs = assay: R848-induced TNF-α in human PBMCs Assay; format: cell-based; conditions: Homo sapiens, PBMC, 4 h, read-out: TNFα (PBMC, R848) (IC50, μM)
# Outline: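 Human PBMCs at 200K/well were pretreated with compound, then R848-stimulated for 4 h at 37 °C, 5% CO2. Supernatant TNF-α quantified by chemiluminescent ELISA; EC50 from curve fitting.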
# [1] = test system: TNF-α in Human Primary Monocyte-Derived Dendritic Cells; assay: Gardiquimod-Induced TNF-α in Human Primary Monocyte-Derived Dendritic Cells; format: cell-based; conditions: Dendritic cell, IFNγ-primed monocyte-derived dendritic cells, 4 μg/ml Gardiquimod, 6 hours, TNF-α ELISA, read-out: TNFα (DC, GARD) (IC50)
# Outline: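 Monocytes differentiated 7 days with GM-CSF and IL-4, then primed 24 h with 50 ng/ml IFN-γ. Compound added 1 h before 6 h stimulation with 4 μg/ml Gardiquimod, 0.5% DMSO final. Supernatant TNF-α measured by chemiluminescent ELISA; EC50 from curve fitting.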
# Chain of IRAK4 (Q9NWZ3 whole entry): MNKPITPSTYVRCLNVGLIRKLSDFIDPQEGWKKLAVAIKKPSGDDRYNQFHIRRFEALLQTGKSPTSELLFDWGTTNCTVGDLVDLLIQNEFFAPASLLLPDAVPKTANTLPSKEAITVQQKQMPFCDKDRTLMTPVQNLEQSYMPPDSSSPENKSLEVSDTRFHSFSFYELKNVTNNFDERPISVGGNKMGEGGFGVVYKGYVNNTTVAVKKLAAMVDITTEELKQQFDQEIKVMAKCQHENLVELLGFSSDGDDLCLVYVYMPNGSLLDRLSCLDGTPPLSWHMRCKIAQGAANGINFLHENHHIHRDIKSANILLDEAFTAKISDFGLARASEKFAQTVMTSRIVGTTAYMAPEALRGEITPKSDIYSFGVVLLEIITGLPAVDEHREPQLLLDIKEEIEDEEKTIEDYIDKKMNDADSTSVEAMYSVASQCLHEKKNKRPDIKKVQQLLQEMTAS
SMILES,IC50 (IRAK4) [nM],IC50 (IL23p19 in THP-1 Cells) [µM],IC50 (TNF-α in human PBMCs) [µM],IC50 [1] [nM]
"CC(C)Oc1cc2c(OC[C@@H]3CC(F)(F)C(=O)N3)ncc(-c3cnn(C4CCOCC4)c3)c2cc1C(N)=O [Compound I-70, (S)-1-((4,4-difluoro-5-oxopyrrolidin-2-yl)methoxy)-7-isopropoxy-4-(1-(tetrahydro-2H-pyran-4-yl)-1H-pyrazol-4-yl)isoquinoline-6-carboxamide]",6.8,2.26,0.292,82.7
"CC(C)Oc1cc2c(OC[C@@H]3CC(F)(F)C(=O)N3)ncc(-c3cnn(CC4CCOCC4)c3)c2cc1C(N)=O [Compound I-71, (S)-1-((4,4-difluoro-5-oxopyrrolidin-2-yl)methoxy)-7-isopropoxy-4-(1-((tetrahydro-2H-pyran-4-yl)methyl)-1H-pyrazol-4-yl)isoquinoline-6-carboxamide]",6.4,0.848,0.174,148
"CC(C)Oc1cc2c(OC[C@@H]3CC(F)(F)C(=O)N3)ncc(-c3cnn(CCC4CCOCC4)c3)c2cc1C(N)=O [Compound I-72, (S)-1-((4,4-difluoro-5-oxopyrrolidin-2-yl)methoxy)-7-isopropoxy-4-(1-(2-(tetrahydro-2H-pyran-4-yl)ethyl)-1H-pyrazol-4-yl)isoquinoline-6-carboxamide]",7,0.872,0.183,273
"CC(C)Oc1cc2c(OC[C@@H]3CC(F)(F)C(=O)N3)ncc(-c3cnn([C@H]4C[C@@H](N(C)C)C4)c3)c2cc1C(N)=O [Compound I-73, 1-(((S)-4,4-difluoro-5-oxopyrrolidin-2-yl)methoxy)-4-(1-(cis-3-(dimethylamino)cyclobutyl)-1H-pyrazol-4-yl)-7-isopropoxyisoquinoline-6-carboxamide]",3,1.04,0.203,259
"CC(C)Oc1cc2c(OC[C@@H]3CC(F)(F)C(=O)N3)ncc(-c3cnn(C4CCN(C(=O)OC(C)(C)C)CC4)c3)c2cc1C(N)=O [Compound I-74, tert-butyl (S)-4-(4-(6-carbamoyl-1-((4,4-difluoro-5-oxopyrrolidin-2-yl)methoxy)-7-isopropoxyisoquinolin-4-yl)-1H-pyrazol-1-yl)piperidine-1-carboxylate]",11.2,0.395,0.141,493
"CC(C)Oc1cc2c(OC[C@@H]3CC(F)(F)C(=O)N3)ncc(-c3cnn(C4CCNCC4)c3)c2cc1C(N)=O [Compound I-75, (S)-1-((4,4-difluoro-5-oxopyrrolidin-2-yl)methoxy)-7-isopropoxy-4-(1-(piperidin-4-yl)-1H-pyrazol-4-yl)isoquinoline-6-carboxamide]",4,85.4,6.64,4580
"CC(C)Oc1cc2c(OC[C@@H]3CC(F)(F)C(=O)N3)ncc(-c3cnn(C4CCN(C)CC4)c3)c2cc1C(N)=O [Compound I-76, (S)-1-((4,4-difluoro-5-oxopyrrolidin-2-yl)methoxy)-7-isopropoxy-4-(1-(1-methylpiperidin-4-yl)-1H-pyrazol-4-yl)isoquinoline-6-carboxamide]",2.4,1.11,0.375,452
"CCO[C@H]1CC[C@H](n2cc(-c3cnc(OC[C@@H]4CC(F)(F)C(=O)N4)c4cc(OC(C)C)c(C(N)=O)cc34)cn2)CC1 [Compound I-77, 1-(((S)-4,4-difluoro-5-oxopyrrolidin-2-yl)methoxy)-4-(1-(trans-4-ethoxycyclohexyl)-1H-pyrazol-4-yl)-7-isopropoxyisoquinoline-6-carboxamide]",7,0.152,0.12,349
"CC(C)Oc1cc2c(OC[C@@H]3CC(F)(F)C(=O)N3)ncc(-c3cnn([C@H]4CC[C@](C)(O)CC4)c3)c2cc1C(N)=O [Compound I-78, 1-(((S)-4,4-difluoro-5-oxopyrrolidin-2-yl)methoxy)-4-(1-((1r,4S)-4-hydroxy-4-methylcyclohexyl)-1H-pyrazol-4-yl)-7-isopropoxyisoquinoline-6-carboxamide]",3.6,0.162,0.234,652
"CC(C)Oc1cc2c(O[C@@H]3CCCNC3)ncc(C#CC3CCOCC3)c2cc1C(N)=O [Compound I-86, (R)-7-isopropoxy-1-(piperidin-3-yloxy)-4-((tetrahydro-2H-pyran-4-yl)ethynyl)isoquinoline-6-carboxamide]",91.3,5.29,1.74,1030
"CC(C)Oc1cc2c(O[C@@H]3CCCNC3)ncc(C#CCC3CCOCC3)c2cc1C(N)=O [Compound I-87, (R)-7-isopropoxy-1-(piperidin-3-yloxy)-4-(3-(tetrahydro-2H-pyran-4-yl)prop-1-yn-1-yl)isoquinoline-6-carboxamide]",52.2,5.02,1.97,776
"CC(C)Oc1cc2c(O[C@@H]3CCCN(C(=O)CC#N)C3)ncc(C#CC3(O)CCCC3)c2cc1C(N)=O [Compound I-88, (R)-1-((1-(2-cyanoacetyl)piperidin-3-yl)oxy)-4-((1-hydroxycyclopentyl)ethynyl)-7-isopropoxyisoquinoline-6-carboxamide]",29.7,2.07,0.903,696
"CC(C)Oc1cc2c(O[C@@H]3CCCN(C(=O)CC#N)C3)ncc(C#CC3CCOCC3)c2cc1C(N)=O [Compound I-89, (R)-1-((1-(2-cyanoacetyl)piperidin-3-yl)oxy)-7-isopropoxy-4-((tetrahydro-2H-pyran-4-yl)ethynyl)isoquinoline-6-carboxamide]",15.2,1.71,0.556,530
"CC(C)Oc1cc2c(O[C@@H]3CCCN(C(=O)CC#N)C3)ncc(C#CCC3CCOCC3)c2cc1C(N)=O [Compound I-90, (R)-1-((1-(2-cyanoacetyl)piperidin-3-yl)oxy)-7-isopropoxy-4-(3-(tetrahydro-2H-pyran-4-yl)prop-1-yn-1-yl)isoquinoline-6-carboxamide]",20.5,1.42,0.433,616
"CC(C)Oc1cc2c(O[C@@H]3CCCN(C(=O)CC#N)C3)ncc(C#CC3(O)CCOCC3)c2cc1C(N)=O [Compound I-91, (R)-1-((1-(2-cyanoacetyl)piperidin-3-yl)oxy)-4-((4-hydroxytetrahydro-2H-pyran-4-yl)ethynyl)-7-isopropoxyisoquinoline-6-carboxamide]",20.7,10.2,3.76,15400
"CC(C)Oc1cc2c(O[C@@H]3CCCN(C(=O)CC#N)C3)ncc(C#CC3(O)CCN(C(=O)OC(C)(C)C)CC3)c2cc1C(N)=O [Compound I-92, tert-butyl (R)-4-((6-carbamoyl-1-((1-(2-cyanoacetyl)piperidin-3-yl)oxy)-7-isopropoxyisoquinolin-4-yl)ethynyl)-4-hydroxypiperidine-1-carboxylate]",142,4.92,3.7,13900

# Reference: patent publication US20230391748A1, “BICYCLIC INHIBITORS OF IRAK” (priority 2022, published 2023)
